Test results published in article PMC11289455 (Scientific Reports, 2024).
Like-named read-outs stand apart in the source and are kept apart here.

Experiments:
[1] = Nonclinical tissue distribution in monkeys; format: in vivo, monkey; conditions: variety of tissues (e.g. colon, ileum, and skin), nonclinical data
[2] = target: T1, GR (glucocorticoid receptor) (Homo sapiens, UniProt P04150); assay: SafetyScreen44: GR; format: binding
T1 construct: purchased Eurofins Cerep SafetyScreen44
T1 sequence (P04150 1-777): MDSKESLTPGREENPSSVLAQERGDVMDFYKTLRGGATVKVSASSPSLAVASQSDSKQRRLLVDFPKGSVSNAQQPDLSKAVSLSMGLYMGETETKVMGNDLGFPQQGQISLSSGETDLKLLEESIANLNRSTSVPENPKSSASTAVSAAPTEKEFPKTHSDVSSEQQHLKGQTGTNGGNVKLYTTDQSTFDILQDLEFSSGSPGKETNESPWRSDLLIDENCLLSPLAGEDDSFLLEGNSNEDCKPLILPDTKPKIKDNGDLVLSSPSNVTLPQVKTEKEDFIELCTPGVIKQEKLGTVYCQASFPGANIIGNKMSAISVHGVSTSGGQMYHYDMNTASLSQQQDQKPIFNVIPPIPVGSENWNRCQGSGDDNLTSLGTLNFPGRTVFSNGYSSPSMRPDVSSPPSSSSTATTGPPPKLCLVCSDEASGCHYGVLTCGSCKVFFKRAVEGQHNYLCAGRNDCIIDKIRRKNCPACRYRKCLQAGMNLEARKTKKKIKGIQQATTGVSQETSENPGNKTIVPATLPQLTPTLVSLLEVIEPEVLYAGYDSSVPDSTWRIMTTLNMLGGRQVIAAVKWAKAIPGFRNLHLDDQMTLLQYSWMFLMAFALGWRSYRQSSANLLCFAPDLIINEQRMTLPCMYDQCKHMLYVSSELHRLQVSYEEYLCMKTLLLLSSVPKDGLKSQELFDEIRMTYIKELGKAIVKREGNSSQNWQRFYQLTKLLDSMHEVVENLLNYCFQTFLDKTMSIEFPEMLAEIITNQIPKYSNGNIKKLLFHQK

[3] = target: T2, 5-HT1A (serotonin 1A receptor) (Homo sapiens, UniProt P08908); assay: SafetyScreen44: 5-HT1A; format: binding
T2 construct: purchased Eurofins Cerep SafetyScreen44
T2 sequence (P08908 1-422): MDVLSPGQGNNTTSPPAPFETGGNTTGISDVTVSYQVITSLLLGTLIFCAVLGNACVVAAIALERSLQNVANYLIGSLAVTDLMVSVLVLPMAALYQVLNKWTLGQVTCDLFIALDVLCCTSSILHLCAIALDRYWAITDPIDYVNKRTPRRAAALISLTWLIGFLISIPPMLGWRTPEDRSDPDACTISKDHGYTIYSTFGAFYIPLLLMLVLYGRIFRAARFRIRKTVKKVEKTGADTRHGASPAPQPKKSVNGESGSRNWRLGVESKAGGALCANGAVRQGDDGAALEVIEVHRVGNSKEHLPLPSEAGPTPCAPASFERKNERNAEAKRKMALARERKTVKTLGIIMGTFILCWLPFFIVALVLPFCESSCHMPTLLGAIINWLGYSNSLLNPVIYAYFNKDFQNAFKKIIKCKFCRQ

[4] = target: T3, β1 (beta-1 adrenergic receptor) (Homo sapiens, UniProt P08588); assay: SafetyScreen44: β1; format: binding
T3 construct: purchased Eurofins Cerep SafetyScreen44

acetylcholinesterase = target: T4, acetylcholinesterase (Homo sapiens, UniProt P22303); assay: SafetyScreen44: acetylcholinesterase; format: biochemical
T4 construct: purchased Eurofins Cerep SafetyScreen44

[5] = target: T5, CB2 (cannabinoid receptor type 2) (Homo sapiens, UniProt P34972); assay: SafetyScreen44: CB2; format: binding
T5 construct: purchased Eurofins Cerep SafetyScreen44

[6] = target: T6, PDE3A (phosphodiesterase 3A) (Homo sapiens, UniProt Q14432); assay: SafetyScreen44: PDE3A; format: biochemical
T6 construct: purchased Eurofins Cerep SafetyScreen44

[7] = target: T7, H2 (histamine H2 receptor) (Homo sapiens, UniProt P25021); assay: SafetyScreen44: H2; format: binding
T7 construct: purchased Eurofins Cerep SafetyScreen44

[8] = target: T8, Norepinephrine transporter (Homo sapiens, UniProt P23975); assay: SafetyScreen44: norepinephrine transporter; format: binding
T8 construct: purchased Eurofins Cerep SafetyScreen44
T8 sequence (P23975 whole entry): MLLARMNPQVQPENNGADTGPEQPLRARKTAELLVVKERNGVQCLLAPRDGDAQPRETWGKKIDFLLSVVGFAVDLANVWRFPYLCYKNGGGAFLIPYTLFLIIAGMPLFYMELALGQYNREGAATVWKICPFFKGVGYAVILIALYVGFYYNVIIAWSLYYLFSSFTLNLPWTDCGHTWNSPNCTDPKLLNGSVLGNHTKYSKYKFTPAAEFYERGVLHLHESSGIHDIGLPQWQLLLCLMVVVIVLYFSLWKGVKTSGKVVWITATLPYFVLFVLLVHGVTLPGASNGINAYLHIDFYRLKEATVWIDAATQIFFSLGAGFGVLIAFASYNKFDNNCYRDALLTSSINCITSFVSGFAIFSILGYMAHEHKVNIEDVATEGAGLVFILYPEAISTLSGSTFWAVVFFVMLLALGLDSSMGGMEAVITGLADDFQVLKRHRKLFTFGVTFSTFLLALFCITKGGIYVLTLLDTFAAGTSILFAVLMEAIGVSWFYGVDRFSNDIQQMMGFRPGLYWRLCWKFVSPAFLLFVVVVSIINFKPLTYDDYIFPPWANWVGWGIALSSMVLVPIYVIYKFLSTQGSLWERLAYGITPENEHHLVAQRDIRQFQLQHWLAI

T7 sequence (P25021 whole entry): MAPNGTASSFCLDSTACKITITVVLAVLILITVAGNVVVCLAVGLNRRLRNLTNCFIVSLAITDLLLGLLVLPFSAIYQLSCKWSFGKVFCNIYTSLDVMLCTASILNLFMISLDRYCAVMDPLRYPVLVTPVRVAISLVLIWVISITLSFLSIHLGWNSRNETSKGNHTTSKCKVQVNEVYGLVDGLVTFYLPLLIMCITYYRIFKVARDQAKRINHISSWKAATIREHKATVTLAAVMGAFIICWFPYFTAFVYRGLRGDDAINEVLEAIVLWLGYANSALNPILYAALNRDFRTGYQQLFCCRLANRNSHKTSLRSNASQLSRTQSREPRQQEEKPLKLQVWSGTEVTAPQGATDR
T5 sequence (P34972 whole entry): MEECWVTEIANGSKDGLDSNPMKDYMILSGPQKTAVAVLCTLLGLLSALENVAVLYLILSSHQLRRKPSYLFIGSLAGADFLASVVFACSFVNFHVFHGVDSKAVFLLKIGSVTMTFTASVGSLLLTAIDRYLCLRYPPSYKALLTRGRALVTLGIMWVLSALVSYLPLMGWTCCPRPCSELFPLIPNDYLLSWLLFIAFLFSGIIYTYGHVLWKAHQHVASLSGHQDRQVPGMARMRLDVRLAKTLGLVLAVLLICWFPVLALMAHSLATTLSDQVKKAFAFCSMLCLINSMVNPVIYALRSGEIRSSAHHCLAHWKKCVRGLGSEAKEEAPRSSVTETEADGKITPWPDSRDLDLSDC
T3 sequence (P08588 whole entry): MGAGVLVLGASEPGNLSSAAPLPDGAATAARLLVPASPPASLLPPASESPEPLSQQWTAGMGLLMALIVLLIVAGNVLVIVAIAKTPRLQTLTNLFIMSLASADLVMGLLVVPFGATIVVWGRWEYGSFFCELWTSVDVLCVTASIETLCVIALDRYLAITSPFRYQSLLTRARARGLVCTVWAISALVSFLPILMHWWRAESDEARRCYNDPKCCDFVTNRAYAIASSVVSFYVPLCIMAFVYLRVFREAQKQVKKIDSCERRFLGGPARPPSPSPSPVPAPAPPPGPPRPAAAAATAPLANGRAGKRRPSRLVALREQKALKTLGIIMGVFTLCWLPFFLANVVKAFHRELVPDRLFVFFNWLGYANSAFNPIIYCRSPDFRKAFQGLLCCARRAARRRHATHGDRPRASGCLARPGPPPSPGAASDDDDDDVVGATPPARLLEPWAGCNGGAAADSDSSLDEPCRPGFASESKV
T6 sequence (Q14432 whole entry): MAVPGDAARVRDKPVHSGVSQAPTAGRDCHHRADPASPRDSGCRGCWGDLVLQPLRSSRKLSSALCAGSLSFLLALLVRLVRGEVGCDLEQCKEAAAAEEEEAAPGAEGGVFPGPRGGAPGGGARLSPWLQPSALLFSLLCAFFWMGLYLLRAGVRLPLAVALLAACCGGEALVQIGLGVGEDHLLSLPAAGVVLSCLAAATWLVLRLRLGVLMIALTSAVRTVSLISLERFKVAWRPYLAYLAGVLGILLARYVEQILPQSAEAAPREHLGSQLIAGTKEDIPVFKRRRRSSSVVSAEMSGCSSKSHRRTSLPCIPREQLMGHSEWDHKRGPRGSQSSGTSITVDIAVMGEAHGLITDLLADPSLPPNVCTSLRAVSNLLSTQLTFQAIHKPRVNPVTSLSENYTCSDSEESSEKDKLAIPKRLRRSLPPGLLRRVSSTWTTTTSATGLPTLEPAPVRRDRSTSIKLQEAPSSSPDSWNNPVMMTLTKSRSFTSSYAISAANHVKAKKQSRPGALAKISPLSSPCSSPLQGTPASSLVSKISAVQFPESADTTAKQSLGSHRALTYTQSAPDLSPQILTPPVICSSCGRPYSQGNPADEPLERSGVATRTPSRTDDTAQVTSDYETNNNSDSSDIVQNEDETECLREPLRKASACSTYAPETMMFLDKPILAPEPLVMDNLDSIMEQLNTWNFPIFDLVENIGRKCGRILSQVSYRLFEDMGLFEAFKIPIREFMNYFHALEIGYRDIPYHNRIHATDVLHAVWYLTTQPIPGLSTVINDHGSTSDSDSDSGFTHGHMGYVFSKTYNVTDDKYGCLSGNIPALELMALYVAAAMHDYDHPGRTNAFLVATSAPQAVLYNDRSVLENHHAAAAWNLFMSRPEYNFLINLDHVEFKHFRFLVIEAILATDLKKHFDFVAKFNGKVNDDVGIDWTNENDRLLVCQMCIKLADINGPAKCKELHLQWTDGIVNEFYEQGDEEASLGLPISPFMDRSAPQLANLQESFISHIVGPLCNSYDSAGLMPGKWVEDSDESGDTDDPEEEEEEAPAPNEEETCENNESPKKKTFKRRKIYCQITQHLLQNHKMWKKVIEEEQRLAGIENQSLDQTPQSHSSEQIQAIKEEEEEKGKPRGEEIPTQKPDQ
T4 sequence (P22303 32-614): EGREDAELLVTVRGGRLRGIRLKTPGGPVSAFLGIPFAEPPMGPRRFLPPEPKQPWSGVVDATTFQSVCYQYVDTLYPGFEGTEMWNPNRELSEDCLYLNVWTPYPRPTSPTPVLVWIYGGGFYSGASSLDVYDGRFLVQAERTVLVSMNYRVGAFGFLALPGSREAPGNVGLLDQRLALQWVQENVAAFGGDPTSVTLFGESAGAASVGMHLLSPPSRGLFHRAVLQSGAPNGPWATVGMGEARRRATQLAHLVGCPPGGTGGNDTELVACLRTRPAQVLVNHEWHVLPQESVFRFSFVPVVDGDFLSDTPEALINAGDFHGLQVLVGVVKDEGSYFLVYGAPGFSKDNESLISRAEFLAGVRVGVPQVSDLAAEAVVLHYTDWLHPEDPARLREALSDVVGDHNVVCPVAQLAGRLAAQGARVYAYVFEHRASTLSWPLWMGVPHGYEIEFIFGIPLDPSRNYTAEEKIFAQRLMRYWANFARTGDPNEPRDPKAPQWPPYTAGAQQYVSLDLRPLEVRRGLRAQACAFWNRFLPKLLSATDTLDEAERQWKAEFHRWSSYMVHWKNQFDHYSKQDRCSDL

CC(=O)NCCCC[C@@H]1NC(=O)[C@H](Cc2c[nH]c3c(C)cccc23)NC(=O)[C@H]([C@@H](C)O)NC(=O)[C@H](CC(N)=O)NC(=O)[C@@H](NC(C)=O)C(C)(C)SSC(C)(C)[C@@H](C(=O)N[C@@H](Cc2ccc(OCCN)cc2)C(=O)N[C@@H](Cc2ccc3ccccc3c2)C(=O)NC2(C(=O)N[C@@H](CCC(=O)O)C(=O)N[C@@H](CC(N)=O)C(=O)N[C@@H](Cc3cccnc3)C(=O)N(C)CC(N)=O)CCOCC2)NC1=O [JNJ-77242113, S^3,1,S^3,6-cyclo[N-acetyl-3-sulfanyl-L-valyl-L-asparaginyl-L-threonyl-7-methyl-L-tryptophyl-N^6-acetyl-L-lysyl-3-sulfanyl-L-valyl-O-(2-aminoethyl)-L-tyrosyl-3-(naphthalen-2-yl)-L-alanyl-4-aminooxan-4-carbonyl-L-α-glutamyl-L-asparaginyl-3-(pyridin-3-yl)-L-alanyl-N^2-methylglycinamide]]
Tissue distribution (in words) [1]: distributed freely | inhibition at 10 µM ([2]; 1st run, read-out: Percent inhibition of control ligand binding, GR, 1st run): 3.5% | inhibition at 10 µM ([2]; 2nd run, read-out: Percent inhibition of control ligand binding, GR, 2nd run): -0.8% | inhibition at 10 µM ([2]; mean of 2 runs, read-out: Percent inhibition of control ligand binding, GR, Mean): 1.3% | inhibition at 10 µM ([3]; 1st run, read-out: Percent inhibition of control ligand binding, 5-HT1A, 1st run): -5.6% | inhibition at 10 µM ([3]; 2nd run, read-out: Percent inhibition of control ligand binding, 5-HT1A, 2nd run): 2.8% | inhibition at 10 µM ([3]; mean of 2 runs, read-out: Percent inhibition of control ligand binding, 5-HT1A, Mean): -1.4% | inhibition at 10 µM ([4]; 1st run, read-out: Percent inhibition of control ligand binding, β1, 1st run): -5.1% | inhibition at 10 µM ([4]; 2nd run, read-out: Percent inhibition of control ligand binding, β1, 2nd run): 7.7% | inhibition at 10 µM ([4]; mean of 2 runs, read-out: Percent inhibition of control ligand binding, β1, Mean): 1.3% | inhibition at 10 µM (acetylcholinesterase; 1st run, read-out: Percent inhibition of control ligand binding, acetylcholinesterase, 1st run): 9.8% | inhibition at 10 µM (acetylcholinesterase; 2nd run, read-out: Percent inhibition of control ligand binding, acetylcholinesterase, 2nd run): 2.2% | inhibition at 10 µM (acetylcholinesterase; mean of 2 runs, read-out: Percent inhibition of control ligand binding, acetylcholinesterase, Mean): 6% | inhibition at 10 µM ([5]; 1st run, read-out: Percent inhibition of control ligand binding, CB2, 1st run): -4.9% | inhibition at 10 µM ([5]; 2nd run, read-out: Percent inhibition of control ligand binding, CB2, 2nd run): -5.8% | inhibition at 10 µM ([5]; mean of 2 runs, read-out: Percent inhibition of control ligand binding, CB2, Mean): -5.4% | inhibition at 10 µM ([6]; 1st run, read-out: Percent inhibition of control ligand binding, PDE3A, 1st run): -30.6% | inhibition at 10 µM ([6]; 2nd run, read-out: Percent inhibition of control ligand binding, PDE3A, 2nd run): -44.7% | inhibition at 10 µM ([6]; mean of 2 runs, read-out: Percent inhibition of control ligand binding, PDE3A, Mean): -37.6% | inhibition at 10 µM ([7]; 1st run, read-out: Percent inhibition of control ligand binding, H2, 1st run): -26.6% | inhibition at 10 µM ([7]; 2nd run, read-out: Percent inhibition of control ligand binding, H2, 2nd run): -22% | inhibition at 10 µM ([7]; mean of 2 runs, read-out: Percent inhibition of control ligand binding, H2, Mean): -24.3% | inhibition at 10 µM ([8]; 1st run, read-out: Percent inhibition of control ligand binding, Norepinephrine transporter, 1st run): -1.3% | inhibition at 10 µM ([8]; 2nd run, read-out: Percent inhibition of control ligand binding, Norepinephrine transporter, 2nd run): -0.6% | inhibition at 10 µM ([8]; mean of 2 runs, read-out: Percent inhibition of control ligand binding, Norepinephrine transporter, Mean): -1%
